Assay results published in patent US10973819B2, “Small molecules inhibitors of RAD51” (The University of Chicago, priority 2016, dated 2021).
Read-outs that look alike come from different tables or passages of the source. Values belong to the compound of their own block, whether it stands above or below them.

Tests used:
[1] = target: T1, RAD51 (Homo sapiens, UniProt Q06609); conditions: while sparing ssDNA binding activity; cited from earlier work
T1 sequence (Q06609 1-339): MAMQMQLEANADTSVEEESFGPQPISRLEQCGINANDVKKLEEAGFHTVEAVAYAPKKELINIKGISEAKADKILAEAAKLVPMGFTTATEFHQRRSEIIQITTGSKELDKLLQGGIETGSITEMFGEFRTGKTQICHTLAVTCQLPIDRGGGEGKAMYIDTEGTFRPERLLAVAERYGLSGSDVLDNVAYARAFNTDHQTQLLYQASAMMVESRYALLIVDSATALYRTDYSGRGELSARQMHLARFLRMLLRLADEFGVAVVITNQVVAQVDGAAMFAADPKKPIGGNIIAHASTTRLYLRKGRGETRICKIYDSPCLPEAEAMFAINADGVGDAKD

[2] = system: RAD51 foci; conditions: previously reported; cited from earlier work
[3] = target: T1, RAD51; assay: Fluorescence polarization-based DNA binding assay (RAD51-ssDNA binding); assay type: biochemical; conditions: for Emax: read-out: ssDNA binding Max effect; for influence on RAD51-ssDNA binding, in words: summary of Tables 2 and 3
Protocol: The fluorescence polarization-based DNA binding assay and purification of human RAD51 used for this assay was performed as previously described with a few modifications.^23 Reactions were carried out in black 384-well polystyrene plates. In each well, RAD51 protein was combined with reaction buffer and varying concentrations of compound in DMSO in an initial volume of 40 μl and incubated at 37° C. for 40 minutes. Then, 10 μl of reaction buffer containing fluorescently-labeled ssDNA substrate (5′-Alexa488-oligo-dT45) was added and the reaction incubated at 37° C. for another 40 minutes, after which the plate was read on a Tecan Infinite 200 Pro plate reader equipped with two sets of 485±25 nm/535±35 nm with parallel or perpendicularly-oriented polarization filters. In both steps of the reaction setup, buffer components were maintained at 20 mM HEPES-NaOH (pH 7.5), 2 mM ATP, 10 mM MgCl2, 0.1 mM TCEP-HCl (tris(2-carboxyethyl)phosphine), and 0.25 μM BSA. The final reaction contained 4% DMSO, 0.2 μM RAD51, 30 mM NaCl, 2% glycerol, and 2.22 nM ssDNA substrate. Compound IC50 values were obtained by least-squares regression fitting of appropriate linear, log, or sigmoid dose-response models to the data, with the standard error indicated. […]

[4] = system: 293-DR-GFP cells; assay: DR-GFP assay, quantitation of HR efficiency in cells; assay type: cell-based, human; conditions: for inhibitory activity in the cell-based HR (DR-GFP) assay relative to 1 and 8, in words: 24-hour incubation, FIG. 5a
Protocol: 293-DR-GFP cells were electroporated in Opti-MEM with 37.5 μg/ml pCBASce in 0.4 cm cuvettes at 325 V, 975 μF and seeded into 6-well plates with 2.5 ml complete DMEM+0.5% DMSO with compound and allowed to outgrow for 24 hours. Following outgrowth, cells were harvested and suspended in PBS with 1 μg/ml 7-aminoactinomycin D (7-AAD) and analyzed on a BD FACSCalibur flow cytometer. Dead and apoptotic cells were gated out based on size, shape, and 7-AAD staining and the fraction of GFP-positive cells among the population of live cells was determined.
The DR-GFP assay was used to test the ability of representative compounds to inhibit HR in human cells.^27 Briefly, cells containing the chromosomal DR-GFP reporter were transfected with a plasmid that expresses I-SceI, a rare-cutting endonuclease that makes a DSB within the DR-GFP cassette. Compounds were added at the time of transfection and the cells were outgrown for 24 hours. For longer outgrowth periods such as 48 hours, cells regained some HR activity. To overcome this technical limitation, the relatively early time point of 24 hours was selected to describe the in vivo effects of these compounds.

[5] = target: T1, RAD51; assay: Gel-based D-loop assay; assay type: biochemical; conditions: for IC50: read-out: D-Loops IC50
Protocol: Human RAD51 in reaction buffer was combined with compound in […] DMSO, incubated at 37° C. for 10 min, and then 1 μl of 5′-^32P-labeled 90-mer ssDNA (5′-[…]) with homology to the plasmid pRS306 ^34 was added and the reaction was incubated at 37° C. for an additional 5 minutes. 1 μl of supercoiled pRS306 was then added to the reaction and incubated at 37° C. for 20 minutes; at this point the reaction consisted of 25 mM HEPES-NaOH (pH 7.0), 1 mM ATP, 1 mM MgCl2, 1 mM DTT, 1.5 μM BSA, 4.5% DMSO, 0.5 μM RAD51, 11 mM NaCl, 1% glycerol, 20 nM ssDNA, and 5 nM pRS306. The reactions were de-proteinized with 0.8% SDS and 0.8 mg/ml proteinase K, mixed with gel loading buffer, and run on a 0.9% agarose/1×TAE gel, which was dried and exposed to a phosphor screen overnight and imaged on a Storm 860 PhosphorImager. Compound IC50 values were obtained by least-squares regression fitting of appropriate linear, log, or sigmoid dose-response models to the data, with the standard error indicated.
To improve upon the D-loop inhibitory activity, medicinal chemical studies were undertaken to optimize 8. First, different functional groups were appended to rings A and B as substituents, including alkyl groups of different sizes, electron withdrawing/donating groups, and hydrogen bond donor/acceptor groups. Next, replacement of the phenyl ring B with different heterocycles or other saturated/unsaturated rings was investigated in order to probe its role. For each of the prepared compounds, the gel-based D-loop assay and the microplate-based DNA binding assay were used to characterize the biochemical activities.

[6] = system: RAD51 foci; assay: RAD51 cytological focus formation after irradiation; assay type: cell-based, human; conditions: 6 hours post-irradiation
Protocol: Cells were grown on glass coverslips for two days prior to irradiation with X-rays at 1.5 Gy/min using a Philips RT250 Maxitron. Following 6 hours of outgrowth, the adherent cells were incubated in permeabilization buffer (20 mM HEPES-NaOH (pH 7.4), 50 mM NaCl, 3 mM MgCl2, 0.5% Triton X-100, 300 mM sucrose) for 10 minutes at room temperature and then fixed in ice-cold fixation buffer (3% paraformaldehyde, 3.4% sucrose in 1×PBS) for 10 minutes at room temperature. The coverslips were washed 3 times in PBS, incubated in blocking buffer (1% BSA in 1×PBS) for 30 minutes, incubated with rabbit anti-human RAD51 primary antibody (Pacific Immunology) at a 1:1000 dilution in blocking buffer for 18 hours at 4° C., washed 3 times in PBS, incubated with Alexa488-conjugated goat anti-rabbit IgG secondary antibody (Invitrogen) at a 1:1000 dilution in blocking buffer for 1 hour at room temperature, washed 3 times in PBS, air-dried, and mounted onto glass slides in Vectashield with DAPI H-1200 (Vector laboratories). Slides were viewed on a Zeiss Axio Imager.M1 epifluorescence microscope equipped with a CCD camera for acquiring images of at least 100 randomly-selected nuclei per test condition at a representative focal plane within the nuclear volume. Sub-nuclear RAD51 foci were quantified using ImageJ (NIH, Bethesda, Md.) using a custom macro set that automatically counts foci. […]

[7] = system: PC-3, Caov-3, SKOV3.ip1, Kuramochi, U2OS cell lines; assay: Clonogenic survival of tumor cell lines after veliparib, olaparib or ionizing radiation; assay type: cell-based; conditions: administered immediately after veliparib, present during clonogenic outgrowth, FIGS. 6a-f
Protocol: FIG. 6A PC-3 cell line treated with veliparib. FIG. 6B Caov-3 cell line treated with veliparib. FIG. 6C Caov-3 cell line treated with olaparib. FIG. 6D SKOV3.ip1 cell line treated with veliparib. FIG. 6E Kuramochi cell line treated with veliparib. FIG. 6F U2OS cell line treated with ionizing radiation (x-rays).
Because 9h inhibits HR-mediated repair of DSBs, the effect of 9h on the sensitization of cancer cells to PARP inhibition or radiation damage was investigated. […] 2.

[8] = Stability on exposure to air at room temperature; assay type: physicochemical; conditions: slowly oxidized over time to compound 8
From the text: These experimental results signify that compound 7 and 1 are distinct compounds. Compound 7 was not stable when exposed to air at room temperature; instead, it slowly oxidized over time to compound 8 (Scheme 2). Additionally, some of the oxidized product 8 was always produced during the preparation of compound 7.

IC50 ([3]; Table 3, Stim = stimulator): 96.9 ± 44.9 µM
Emax ([3]; Table 3, cells marked ↓: compound inhibits RAD51-ssDNA binding): 82 ± 23%
influence on RAD51-ssDNA binding, in words [3]: modest effects
IC50 ([5]; Table 3): 8.4 ± 3.4 µM
SMILES: Nc1ccc(-c2nc3cc(O)ccc3n3cccc23)cc1 [Compound 12f, 4-(4-Aminophenyl)pyrrolo[1,2-a]quinoxalin-7-ol]
inhibitory activity in the cell-based HR (DR-GFP) assay relative to 1 and 8, in words [4]: comparable or slightly less inhibitory activity

ssDNA binding IC50 ([3]; Table 3, Stim = stimulator): Stim
Emax ([3]; Table 3, cells marked ↑: compound stimulates RAD51-ssDNA binding): 34 ± 32%
influence on RAD51-ssDNA binding, in words [3]: only weakly influenced
D-Loops Max inhibition effect ([5]; Table 3): 91 ± 8%
IC50 ([5]; Table 3): 9.8 µM
SMILES: CN(C)c1ccc(-c2nc3cc(O)ccc3n3cccc23)cc1 [Compound 12g, 4-(4-(Dimethylamino)phenyl)pyrrolo[1,2-a]quinoxalin-7-ol]
inhibitory activity in the cell-based HR (DR-GFP) assay relative to 1 and 8, in words [4]: comparable or slightly less inhibitory activity

Emax ([3]; Table 2, cells marked ↑: compound stimulates RAD51-ssDNA binding): 2 ± 24%
influence on RAD51-ssDNA binding, in words [3]: almost no impact
D-Loops Max inhibition effect ([5]; Table 2): 91 ± 2%
SMILES: CCNc1ccc(-c2nc3ccccc3n3cccc23)cc1 [Compound 9h, N-ethyl-4-(pyrrolo[1,2-a]quinoxalin-4-yl)aniline]
timely assembly of RAD51 into sub-nuclear foci in response to DNA damage [6]: did not inhibit
IC50 ([4]; Homo sapiens, 24 hours post-transfection, FIG. 5b, read-out: IC50, inhibition of cellular HR): 0.3 ± 0.125 µM
inhibition of cellular HR ([4]; at concentrations that did not inhibit RAD51 foci assembly): more than 90%
sensitization of cancer cell lines to veliparib, olaparib or irradiation (clonogenic survival) [7]: significantly sensitized
sensitization of cancer cell lines to veliparib, olaparib or irradiation (clonogenic survival) ([7]; listed as RI(dl)-2): significantly sensitizes

The remaining lines, values behind:

SMILES: C[C@@]12CCC(=O)c3coc(c31)C(=O)c1cc3c(cc12)C(=O)C=CC3=O [Halenaquinone, halenaquinone]
inhibition of RAD51's HR activity in biochemical assays [1]: strongly inhibit
formation of RAD51 foci in human cells following irradiation [2]: inhibit

SMILES: COc1ccc2c(c1)NC(c1ccc(N(C)C)cc1)c1cccn1-2 (centres unmarked) [Compound 7, 4-(7-Methoxy-4,5-dihydropyrrolo[1,2-a][13]quinoxalin-4-yl)-N,N-dimethylaniline]
ssDNA binding IC50 ([3]; Table 1, Stim = stimulator): Stim
Emax ([3]; Table 1, cells marked ↑: compound stimulates RAD51-ssDNA binding): 47%
stability when exposed to air at room temperature [8]: not stable
inhibitory activity in the cell-based HR (DR-GFP) assay relative to 1 and 8, in words [4]: comparable
D-Loops Max inhibition effect ([5]; Table 1): 17%
